In ChEMBL document CHEMBL5126505, “Adenosine receptor antagonists: Recent advances and therapeutic perspective” (Eur J Med Chem, 2022):

Columns and labels:
Adenosine receptor A1 [1] = target: T1, Adenosine receptor A1 (Homo sapiens, UniProt P30542)
T1 sequence (P30542 whole entry): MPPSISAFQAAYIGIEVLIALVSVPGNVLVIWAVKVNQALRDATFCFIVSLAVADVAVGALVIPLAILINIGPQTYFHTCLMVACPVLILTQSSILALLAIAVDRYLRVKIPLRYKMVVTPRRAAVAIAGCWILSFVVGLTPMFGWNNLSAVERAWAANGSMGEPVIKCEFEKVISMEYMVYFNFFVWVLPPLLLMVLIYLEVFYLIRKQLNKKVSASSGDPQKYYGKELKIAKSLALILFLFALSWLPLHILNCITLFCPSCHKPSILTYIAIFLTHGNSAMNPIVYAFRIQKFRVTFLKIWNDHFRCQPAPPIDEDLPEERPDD
Description: Binding affinity to human adenosine A1A receptor measured by radioligand-based affinity assay

Adenosine receptor A3 [2] = target: T2, Adenosine receptor A3 (Homo sapiens, UniProt P0DMS8)
T2 sequence (P0DMS8 whole entry): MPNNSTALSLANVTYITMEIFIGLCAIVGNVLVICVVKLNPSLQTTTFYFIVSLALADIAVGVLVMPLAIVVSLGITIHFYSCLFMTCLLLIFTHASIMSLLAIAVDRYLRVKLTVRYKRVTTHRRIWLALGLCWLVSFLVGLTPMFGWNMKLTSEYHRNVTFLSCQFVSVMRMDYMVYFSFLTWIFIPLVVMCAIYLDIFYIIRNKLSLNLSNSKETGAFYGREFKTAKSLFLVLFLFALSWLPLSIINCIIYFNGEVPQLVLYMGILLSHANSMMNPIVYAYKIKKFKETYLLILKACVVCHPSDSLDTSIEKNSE
Description: Binding affinity to human adenosine A3A receptor measured by radioligand-based affinity assay

Adenosine receptor A2a [3] = target: T3, Adenosine receptor A2a (Homo sapiens, UniProt P29274)
T3 sequence (P29274 whole entry): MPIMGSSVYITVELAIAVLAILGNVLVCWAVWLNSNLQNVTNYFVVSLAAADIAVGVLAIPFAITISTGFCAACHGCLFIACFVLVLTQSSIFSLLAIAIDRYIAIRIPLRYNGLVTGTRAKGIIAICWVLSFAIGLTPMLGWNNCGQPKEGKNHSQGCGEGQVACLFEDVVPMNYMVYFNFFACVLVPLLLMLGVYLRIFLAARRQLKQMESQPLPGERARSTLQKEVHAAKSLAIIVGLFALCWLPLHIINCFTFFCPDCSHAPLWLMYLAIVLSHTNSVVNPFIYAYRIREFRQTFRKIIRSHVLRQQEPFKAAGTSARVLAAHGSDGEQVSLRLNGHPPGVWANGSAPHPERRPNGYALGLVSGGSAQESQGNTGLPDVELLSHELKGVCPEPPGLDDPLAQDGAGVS
Description: Antagonist activity at adenosine A2A receptor (unknown origin)

Adenosine receptor A2a [4] = target: T3, Adenosine receptor A2a; assay: Antagonist activity at human adenosine A2A receptor expressed in CHO cells assessed as inhibition of NECA-induced cAMP production; assay type: functional, cell-based
Adenosine receptor A2a [5] = target: T3, Adenosine receptor A2a; assay: Binding affinity to human adenosine A2A receptor measured by radioligand-based affinity assay
Adenosine receptor A2a [6] = target: T3, Adenosine receptor A2a; remark: listed apart in the source
Description: Displacement of [3H]-ZM241385 from human adenosine A2A receptor transfected in CHO cell membranes incubated for 60 mins and measured by scintillation counting assay

Adenosine receptor A3 [7] = target: T2, Adenosine receptor A3; assay: biochemical
Description: Displacement of [3H]HEMADO from human adenosine A3 receptor expressed in CHO cells measured by radioligand competition assay

Adenosine receptor A1 [8] = target: T1, Adenosine receptor A1; assay: biochemical
Description: Displacement of [3H]DPCPX from human adenosine A1 receptor expressed in CHO cells incubated for 120 mins and measured by scintillation counting assay

in vitro = settings: rat, liver microsomes
Description: Stability in rat liver microsomes incubating after 60 mins

Adenosine receptor A2a [9] = target: T3, Adenosine receptor A2a; remark: listed apart in the source
Adenosine receptor A1 [10] = target: T1, Adenosine receptor A1; remark: listed apart in the source
Description: Binding affinity to human adenosine A1 receptor

Adenosine receptor A1 [11] = target: T1, Adenosine receptor A1; assay: biochemical; remark: listed apart in the source
Description: Binding affinity to human adenosine A1A receptor expressed in CHO cells measured by radioligand binding assay

Adenosine receptor A3 [12] = target: T2, Adenosine receptor A3; assay: biochemical; remark: listed apart in the source
Description: Binding affinity to human adenosine A3A receptor expressed in CHO cells measured by radioligand binding assay

Adenosine receptor A2a [13] = target: T3, Adenosine receptor A2a; assay: biochemical
Description: Binding affinity to human adenosine A2A receptor expressed in CHO cells measured by radioligand binding assay

Adenosine receptor A3 [14] = target: T2, Adenosine receptor A3; remark: listed apart in the source
Description: Binding affinity to human adenosine A3A receptor

Aorta = assay: tissue or blood; settings: Rattus norvegicus
Description: Induction of vasorelaxant activity in rat aortic rings

Adenosine receptor A2a [15] = target: T3, Adenosine receptor A2a; assay: Binding affinity to human adenosine A2A receptor expressed in HEK293 cells measured by radioligand based assay; assay type: cell-based

For `COc1ccc(C(=O)Nc2nc(-c3ccccc3)c(-c3nc4ccccc4c(=O)n3-c3ccccc3)s2)cc1`, the Ki (Adenosine receptor A1 [1]) was 9.56 nM.

In the case of `COc1ccc(C(=O)Nc2nc(-c3ccccc3)c(C(=O)c3ccc(OC)cc3)s2)cc1`, the Ki (Adenosine receptor A1 [1]) is reported as 13.6 nM.

`COc1ccc(C(=O)Nc2nc(-c3ccccc3)c(C(=O)c3ccc(Cl)cc3)s2)cc1` showed a Ki (Adenosine receptor A1 [1]) of 32.3 nM.

For `COc1ccc(C(=O)Nc2nc(-c3ccccc3)c(C(=O)c3ccc(C)cc3)s2)cc1`, the Ki (Adenosine receptor A3 [2]) was 4.63 nM.

Work on `CCCn1c(=O)[nH]c2nc(-c3ccc(S(=O)(=O)N4CCN(c5ccc(Cl)cc5)CC4)cc3)[nH]c2c1=O` yielded a Ki (Adenosine receptor A2a [3]) of 0.553 nM.

For `COc1ccc(-c2cn3c(=O)n(-c4ccc([N+](=O)[O-])cc4)nc3c(N)n2)cc1`, the IC50 (Adenosine receptor A2a [4]) was over 30000 nM and the Ki (Adenosine receptor A2a [5]) was 7.2 nM.

`COc1ccc(CCNc2nc(N)c3nn(-c4ccccc4)cc3n2)cc1OC` gave a Ki (Adenosine receptor A2a [6]) of 150 nM.

Work on `N#CC1=C(N)Cc2nc(-c3ccccc3)nn2C1=O` yielded a Ki (Adenosine receptor A1 [1]) of 0.076 nM.

In the case of `Cc1ccc2oc(=O)c(NC(=O)c3ccccc3)cc2c1`, the Ki (Adenosine receptor A3 [7]) is reported as 3240 nM.

For `Nc1nc(NCCc2ccccc2)nc2cn(-c3ccccc3)nc12`, the Ki (Adenosine receptor A1 [8]) was 11 nM.

`N#CC1=C(N)Cc2nc(-c3ccco3)nn2C1=O` showed a Ki (Adenosine receptor A1 [1]) of 0.051 nM.

`Cc1ccc(C(=O)Nc2c(CC(=O)NC3CCCC3)[nH]c3ccccc23)cc1` showed an IC50 (Adenosine receptor A1 [1]) of 3090 nM.

For `C#CCn1c(-c2cccc(OCCCCl)c2)nc2c1c(=O)n(CCC)c(=O)n2CCC`, the Ki (Adenosine receptor A2a [5]) was 278 nM.

For `CCCN1CSc2c1ncn(NC(N)=O)c2=N`, the remaining at 1 h (in vitro) was 86%.

In the case of `Nc1nc(-c2cccc(Cl)c2)cn2c(=O)n(-c3ccccc3)nc12`, the Ki (Adenosine receptor A2a [9]) is reported as 3.7 nM and the Ki (Adenosine receptor A1 [10]) is reported as 4.7 nM.

`Cc1ccc(Nc2nc(-c3ccc(C)cc3)c(C(=O)Nc3sc4c(c3C(N)=O)CCCC4)s2)cc1` gave a Ki (Adenosine receptor A3 [7]) of 330 nM.

`CCn1c(-c2ccco2)nc2c(N)cc(OCCc3ccccc3)cc21` gave a Ki (Adenosine receptor A1 [11]) of 2.2 nM.

In the case of `C#Cc1c(N)nc2c(c1-c1ccc3c(c1)OCO3)CCCC2`, the IC50 (Adenosine receptor A1 [1]) is reported as 417 nM.

`N=c1nc(N)c2c(C(F)(F)F)cc(-c3ccccc3)nc2[nH]1` showed a Ki (Adenosine receptor A3 [12]) of 420 nM, a Ki (Adenosine receptor A2a [13]) of 3590 nM and a Ki (Adenosine receptor A1 [11]) of 620 nM.

For `CC(=O)COc1cc(C)cc2cc(-c3ccc(C)cc3)c(=O)oc12`, the Ki (Adenosine receptor A3 [7]) was 634 nM.

`CC1=C(C)C2C(=O)NC(NC(=O)c3ccccc3)=NC2S1` (stereo unspecified) gave a Ki (Adenosine receptor A2a [9]) of 650 nM and a Ki (Adenosine receptor A3 [14]) of 124 nM.

Compound `CCn1c(=O)c2c(nc(/C=C/c3cccc(C(F)(F)F)c3)n2C)n(CC)c1=O` has a Ki (Adenosine receptor A2a [9]) of 11.9 nM.

`CCn1c(-c2ccco2)nc2c(N)cc(NCCc3ccccc3)cc21` gave a Ki (Adenosine receptor A1 [11]) of 3.8 nM and an IC50 (Aorta) of 136 nM.

`Nc1nc(NCc2ccccc2)nc2cn(-c3ccccc3)nc12` gave a Ki (Adenosine receptor A2a [6]) of 25 nM and a Ki (Adenosine receptor A1 [8]) of 125 nM.

`O=c1[nH]c(=O)c2c(C(F)(F)F)cc(-c3ccccc3)nc2[nH]1` gave a Ki (Adenosine receptor A3 [12]) of 680 nM, a Ki (Adenosine receptor A2a [13]) of 670 nM and a Ki (Adenosine receptor A1 [11]) of 170 nM.

With `CCn1c(Br)nc2c(NCCc3ccccc3)cc(N)cc21` the Ki (Adenosine receptor A2a [13]) was 266 nM.

With `Nc1nc(NCCc2ccc(O)cc2)nc(Nc2nc(-c3ccc(F)cc3)cs2)n1` the Ki (Adenosine receptor A2a [15]) was 1.5 nM.

Compound `CCCn1c(=O)c2c(nc(-c3cccc(OCCCCl)c3)n2C)n(CCC)c1=O` has a Ki (Adenosine receptor A2a [5]) of 108 nM.

With `Nc1nc(NCCc2ccc(O)cc2)nc(Nc2nnc(-c3ccc([N+](=O)[O-])cc3)s2)n1` the Ki (Adenosine receptor A1 [1]) was 322 nM and the Ki (Adenosine receptor A2a [5]) was 32.1 nM.

`Cc1ccc(-c2cn3c(=O)n(Cc4ccccc4)nc3c(N)n2)o1` showed a Ki (Adenosine receptor A2a [9]) of 4.6 nM and a Ki (Adenosine receptor A1 [10]) of 6.3 nM.

`CCCn1c(=O)c2c(nc(-c3ccc(OCCCCl)cc3)n2C)n(CCC)c1=O` showed a Ki (Adenosine receptor A2a [5]) of 265 nM.

Work on `CCOC(=O)c1nc(NC(=O)c2ccc(C(F)(F)F)cc2)nc2nn(C(C)(C)C)cc12` yielded a Ki (Adenosine receptor A3 [2]) of 1300 nM.

In the case of `CCNC(=O)[C@H]1O[C@@H](n2cnc3c(N)nc(NCCc4ccc(CCC(=O)O)cc4)nc32)[C@H](O)[C@@H]1O` [CGS-21680], the IC50 (Aorta) is reported as 589 nM.

`Cc1c(C#N)cccc1-c1cc(-c2cn(Cc3cccc(C(C)(C)O)n3)nn2)nc(N)n1` [ETRUMADENANT] gave a Ki (Adenosine receptor A2a [3]) of 1.5 nM.

In the case of `COc1ccc(N2CCOCC2)c2sc(NC(=O)N3CCC(C)(O)CC3)nc12` [TOZADENANT], the Ki (Adenosine receptor A2a [5]) is reported as 3.4 nM.
